Measurements published in PubChem BioAssay (NCI).
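GI50 is the concentration that inhibits growth by half. TGI marks complete inhibition of growth.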

How the values were obtained:
Assay in all cases: NCI anticancer screen, dose series, 384-well format
[1] = test system: UACC-257 melanoma
[2] = test system: SNB-75 CNS
[3] = test system: UACC-62 melanoma
[4] = test system: COLO 205 colon
[5] = test system: ACHN renal
[6] = test system: SK-MEL-28 melanoma
[7] = test system: OVCAR-5 ovarian
[8] = test system: LOX IMVI melanoma
[9] = test system: A549 NSCLC
[10] = test system: HL-60(TB) leukemia
[11] = test system: OVCAR-4 ovarian
[12] = test system: HOP-62 NSCLC
[13] = test system: DU-145 prostate

Cc1cc(Nc2ncc(Cl)c(Nc3ccccc3S(=O)(=O)C(C)C)n2)c(OC(C)C)cc1C1CCNCC1
GI50 [1]: 777 nM | TGI [1]: 1530 nM | GI50 [2]: 1860 nM | TGI [2]: 3270 nM | GI50 [3]: 1040 nM | TGI [3]: 2320 nM | GI50 [4]: 663 nM | TGI [4]: 1900 nM | GI50 [5]: 1770 nM | TGI [5]: 3170 nM | GI50 [6]: 1540 nM | TGI [6]: 2880 nM | GI50 [7]: 1510 nM | TGI [7]: 2850 nM | GI50 [8]: 1280 nM | TGI [8]: 2560 nM | GI50 [9]: 1400 nM | TGI [9]: 2730 nM | GI50 [10]: 218 nM | TGI [10]: 490 nM | GI50 [11]: 1990 nM | TGI [11]: 3420 nM | GI50 [12]: 1710 nM | TGI [12]: 3100 nM | GI50 [13]: 1560 nM | TGI [13]: 2920 nM
